Assay results from ChEMBL document CHEMBL5215002, “Selective Inhibition of PTP1B by New Anthraquinone Glycosides from Knoxia valerianoides” (J Nat Prod, 2022).
Calls of active or inactive are those of the source. The calls are words filed in the database; no cut-off is given here.

Columns and labels:
[1] = molecular target: T1, Tyrosine-protein phosphatase non-receptor type 1 (Homo sapiens, UniProt P18031); experiment: Inhibition of N-terminal His-tagged recombinant human PTP1B expressed in Escherichia coli
T1 sequence (P18031 whole entry): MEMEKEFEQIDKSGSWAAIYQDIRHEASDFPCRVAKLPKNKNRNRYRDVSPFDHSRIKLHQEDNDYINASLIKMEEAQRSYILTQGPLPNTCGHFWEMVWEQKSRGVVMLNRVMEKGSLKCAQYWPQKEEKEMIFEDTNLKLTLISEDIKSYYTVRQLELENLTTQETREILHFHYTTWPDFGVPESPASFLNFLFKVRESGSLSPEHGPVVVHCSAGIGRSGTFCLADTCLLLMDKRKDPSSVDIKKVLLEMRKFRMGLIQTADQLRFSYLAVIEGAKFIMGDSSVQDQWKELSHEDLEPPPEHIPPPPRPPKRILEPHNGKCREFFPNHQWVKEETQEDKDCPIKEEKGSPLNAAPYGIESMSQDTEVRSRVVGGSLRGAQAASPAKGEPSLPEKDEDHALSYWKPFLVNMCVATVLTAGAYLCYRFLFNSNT

[2] = molecular target: T1, Tyrosine-protein phosphatase non-receptor type 1; experiment: Mixed type inhibition of N-terminal His-tagged recombinant human PTP1B expressed in Escherichia coli using pNPP as substrate assessed as inhibition constant preincubated for 15 mins followed by substrate addition and measured after 15 mins by Dixon plot analysis
[3] = molecular target: T2, Tyrosine-protein phosphatase non-receptor type 2 (Homo sapiens) (UniProt P17706); experiment: Inhibition of recombinant human TCPTP (1 to 314 residues) expressed in baculovirus-insect cells at 100 uM relative to control
T2 sequence (whole entry): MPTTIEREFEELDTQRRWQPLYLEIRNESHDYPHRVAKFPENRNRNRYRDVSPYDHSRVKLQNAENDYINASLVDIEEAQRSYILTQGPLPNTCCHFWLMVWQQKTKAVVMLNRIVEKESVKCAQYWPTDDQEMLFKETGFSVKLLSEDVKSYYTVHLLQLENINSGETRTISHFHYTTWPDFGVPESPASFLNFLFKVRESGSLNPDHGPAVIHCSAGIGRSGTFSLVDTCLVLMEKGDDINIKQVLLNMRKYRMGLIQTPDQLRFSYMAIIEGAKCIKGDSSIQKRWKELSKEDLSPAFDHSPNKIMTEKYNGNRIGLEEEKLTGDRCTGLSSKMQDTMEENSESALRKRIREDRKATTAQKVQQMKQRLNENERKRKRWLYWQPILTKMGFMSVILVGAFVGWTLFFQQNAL

[4] = molecular target: T3, Tyrosine-protein phosphatase non-receptor type 2 (Homo sapiens, UniProt P17706); experiment: Inhibition of recombinant human TCPTP (1 to 314 residues) expressed in baculovirus-insect cells
T3 sequence (P17706 whole entry): T2 sequence (whole entry)

[5] = molecular target: T4, Tyrosine-protein phosphatase non-receptor type 1 (Homo sapiens) (UniProt P18031); experiment: Mixed type inhibition of N-terminal His-tagged recombinant human PTP1B expressed in Escherichia coli assessed as reduction in Vmax with increase in Km using varying concentrations of pNPP as substrate preincubated for 15 mins followed by substrate addition and measured after 15 mins by Lineweaver-Burk plot analysis; details: time 30.0 min
T4 sequence (whole entry): T1 sequence (P18031 whole entry)

[6] = species on record: Homo sapiens; experiment: Selectivity index, ratio of IC50 for inhibition of recombinant human TCPTP (1 to 314 residues) expressed in baculovirus infected insect cells to IC50 for inhibition of N-terminal His-tagged recombinant human PTP1B expressed in Escherichia coli

| Molecule | IC50 [1] [µM] | Ki [2] [µM] | inhibition [3] [%] | IC50 [4] [µM] | inhibition [5] | Ratio IC50 [6] |
| --- | --- | --- | --- | --- | --- | --- |
| Cc1c(O[C@@H]2O[C@H](CO[C@@H]3OC[C@@H](O)[C@H](O)[C@H]3O)[C@@H](O)[C@H](O)[C@H]2O)cc2c(c1O)C(=O)c1ccccc1C2=O | 13.7 |  |  |  |  |  |
| O=C1c2ccccc2C(=O)c2c1cc(O[C@@H]1O[C@H](CO)[C@@H](O)[C@H](O)[C@H]1O)c(CO)c2O | 10.8 |  |  |  |  |  |
| COc1ccc2c(c1)C(=O)c1cc(O[C@@H]3O[C@H](CO[C@@H]4OC[C@@H](O)[C@H](O)[C@H]4O)[C@@H](O)[C@H](O)[C@H]3O)c(C)c(O)c1C2=O | 9.04 |  |  |  |  |  |
| O=C1c2ccccc2C(=O)c2c1cc(O)c(CO[C@@H]1O[C@H](CO)[C@@H](O)[C@H](O)[C@H]1O)c2O | 3.86 | 3.02 | < 20 | > 100 | Active | 25.9 |
| COc1ccc2c(c1O)C(=O)c1cc(O[C@@H]3O[C@H](CO[C@@H]4OC[C@@H](O)[C@H](O)[C@H]4O)[C@@H](O)[C@H](O)[C@H]3O)c(CO)c(O)c1C2=O | 3.52 |  |  |  |  |  |
| COc1ccc2c(c1)C(=O)c1cc(O[C@@H]3O[C@H](CO)[C@@H](O)[C@H](O)[C@H]3O)c(CO)c(O)c1C2=O | 1.56 |  | < 20 | > 100 |  | 64.1 |
| COc1ccc2c(c1O)C(=O)c1cc(O[C@@H]3O[C@H](CO)[C@@H](O)[C@H](O)[C@H]3O)c(CO)c(O)c1C2=O | 3.05 |  |  |  |  |  |
| SODIUM ORTHOVANAD |  |  |  |  |  | 0.67 |
| COc1ccc2c(c1)C(=O)c1cc(O)c(CO[C@@H]3O[C@H](CO[C@@H]4OC[C@@H](O)[C@H](O)[C@H]4O)[C@@H](O)[C@H](O)[C@H]3O)c(O)c1C2=O | 7.52 |  |  |  |  |  |
| Cc1c(O[C@@H]2O[C@H](CO[C@@H]3OC[C@@H](O)[C@H](O)[C@H]3O)[C@@H](O)[C@H](O)[C@H]2O)cc2c(c1O)C(=O)c1ccc(O)c(O)c1C2=O | 1.05 | 1.21 |  | 78 | Active | 74.3 |
| COc1ccc2c(c1)C(=O)c1cc(O[C@@H]3O[C@H](CO[C@@H]4OC[C@@H](O)[C@H](O)[C@H]4O)[C@@H](O)[C@H](O)[C@H]3O)c(CO)c(O)c1C2=O | 11.3 |  | < 20 | > 100 |  | 8.9 |
| COc1ccc2c(c1O)C(=O)c1cc(O[C@@H]3O[C@H](CO[C@@H]4OC[C@@H](O)[C@H](O)[C@H]4O)[C@@H](O)[C@H](O)[C@H]3O)c(C)c(O)c1C2=O | 7.28 |  | 40 | > 100 |  | 13.7 |
